In BigSolDB 2.1:

N#CN=C(N)N
solubility (mole fraction)
Settings	283.15 K	288.15 K	293.15 K	298.15 K	303.15 K	308.15 K	313.15 K	318.15 K	323.15 K
in acetone	0.00634	0.00658	0.00677	0.00754	0.00836	0.0102	0.0112	0.0133	0.0154
in acetonitrile	0.00219	0.00226	0.00245	0.00273	0.00296	0.00324	0.00364	0.00447	0.00528
in ethanol	0.00786	0.00861	0.00936	0.0102	0.0109	0.0125	0.0142	0.017	0.0206
